Drawing on ChEMBL document CHEMBL1148419, “Novel P4 truncated tripeptidyl alpha-ketoamides as HCV protease inhibitors” (Bioorg Med Chem Lett, 2004), this text covers inhibition for 7 molecules.

Experiment [1] relates to Hepatitis C virus NS3 protease (Hepatitis C virus). Briefly: Inhibitory activity against Protease using replicon assay in rats at 50 uM concentration. The settings on record: Rattus norvegicus.
The test system is the same in experiment [2]. In words: Inhibitory activity against Protease using replicon assay in rats at 50 uM concentration; Not active. The settings on record: Rattus norvegicus. On the technique in general: In antiviral work, replicon cells carry a viral genome segment that copies itself.

A word on the inhibition: it is the percentage by which the read-out fell short of the control.

Activity calls are given as the source filed them. The rule behind the calls is not given here.

As for `CCCC(NC(=O)[C@@H]1[C@H]2CCC(F)(F)[C@H]2CN1C(=O)[C@@H](NC(=O)[C@H](O)C(C)C)C(C)C)C(=O)C(=O)NC1CC1` (some centres not stated), the inhibition result in experiment [1] is “inactive”.
In experiment [1], `CCCC(NC(=O)[C@@H]1[C@H]2CCC(F)(F)[C@H]2CN1C(=O)[C@@H](NC(=O)OC(C)C)C(C)(C)C)C(=O)C(=O)N[C@@H](C)c1ccccc1` (some centres not stated) displayed an inhibition of 51%.
The same measure, in the same setting: the value for `CCCC(NC(=O)[C@@H]1[C@H]2CCC[C@H]2CN1C(=O)[C@@H](NC(=O)OC(C)C)C(C)C)C(=O)C(=O)N[C@@H](C)c1ccccc1` (some centres not stated) was 7%.
As for `CCCC(NC(=O)[C@@H]1[C@H]2CCC[C@H]2CN1C(=O)[C@@H](NC(=O)[C@H](O)C(C)C)C(C)C)C(=O)C(=O)NC1CC1` (some centres not stated), the inhibition entry in experiment [2] is “inactive”.
`CCCC(NC(=O)[C@@H]1[C@H]2CCC[C@H]2CN1C(=O)[C@@H](NC(=O)[C@H](O)C(C)C)C(C)C)C(=O)C(=O)Nc1ccccc1` (some centres not stated): the inhibition result in experiment [2] is “inactive”.
Still for that read-out and setting: under `CCCC(NC(=O)[C@@H]1[C@H]2CCC[C@H]2CN1C(=O)[C@@H](NC(=O)OC(C)C)C(C)(C)C)C(=O)C(=O)Nc1ccccc1` (some centres not stated) stands “inactive”.
For the molecule `CCCC(NC(=O)[C@@H]1[C@H]2CCC(F)(F)[C@H]2CN1C(=O)[C@@H](NC(=O)OC(C)C)C(C)C)C(=O)C(=O)N[C@@H](C)c1ccccc1` (some centres not stated), the inhibition in experiment [1] worked out at 22%.
